Reference: patent publication US9357778B2, “N-acyl-2-(cyclo)alkypyrrolidines and piperidines useful as fungicides” (BAYER CROPSCIENCE AG, priority 2012, dated 2016)

Columns and labels:
[1] = log P by HPLC on reversed-phase column (C 18), EEC Directive 79/831 Annex V.A8; format: physicochemical; conditions: 40° C., 0.1% aqueous formic acid and acetonitrile
Experimental: In table 1, the log P values were determined in accordance with EEC Directive 79/831 Annex V.A8 by HPLC (High Performance Liquid Chromatography) on a reversed-phase column (C 18), using the method described below: Temperature: 40° C.; Mobile phases: 0.1% aqueous formic acid and acetonitrile; linear gradient from 10% acetonitrile to 90% acetonitrile. Calibration was carried out using unbranched alkan-2-ones (comprising 3 to 16 carbon atoms) with known log P values (determination of the log P values by the retention times using linear interpolation between two successive alkanones). lambda-max-values were determined using UV-spectra from 200 nm to 400 nm and the peak values of the chromatographic signals.

[2] = system: Pyrenophora teres; experiment: In vivo preventive test on Pyrenophora teres (barley); conditions: 500 ppm of active ingredient, evaluated 7-9 days after inoculation
Experimental: In Vivo Preventive Test on Pyrenophora teres (Barley) • Solvent: 49 parts by weight of N,N-dimethylformamide • Emulsifier: 1 part by weight of alkylaryl polyglycol ether To produce a suitable preparation of active compound, 1 part by weight of active compound is mixed with the stated amounts of solvent and emulsifier, and the concentrate is diluted with water to the desired concentration. To test for preventive activity, young plants are sprayed with the preparation of active compound at the stated rate of application. One day after this treatment, the plants are inoculated with an aqueous spore suspension of Pyrenophora teres. The plants remain for 48 hours in an incubation cabinet at 22° C. and a relative atmospheric humidity of 100%. Then the plants are placed in a greenhouse at a temperature of approximately 20° C. and a relative atmospheric humidity of approximately 80%. The test is evaluated 7-9 days after the inoculation. 0% means an efficacy which corresponds to that of the untreated control while an efficacy of 100% means that no disease is observed.

[3] = system: Alternaria solani; experiment: In vivo preventive test on Alternaria solani (tomato); conditions: evaluated 7 days after inoculation
Experimental: In Vivo Preventive Test on Alternaria solani (Tomato) • Solvent: 49 parts by weight of N,N-dimethylformamide • Emulsifier: 1 part by weight of alkylarylpolyglycolether To produce a suitable preparation of active compound, 1 part by weight of active compound is mixed with the stated amounts of solvent and emulsifier, and the concentrate is diluted with water to the desired concentration. To test for preventive activity, young plants are sprayed with the preparation of active compound at the stated rate of application. One day after this treatment, the plants are inoculated with an aqueous spore suspension of Alternaria solani. The plants remain for one day in an incubation cabinet at approximately 22° C. and a relative atmospheric humidity of 100%. Then the plants are placed in an incubation cabinet at approximately 20° C. and a relative atmospheric humidity of 96%. The test is evaluated 7 days after the inoculation. 0% means an efficacy which corresponds to that of the untreated control while an efficacy of 100% means that no disease is observed.

[4] = system: Sphaerotheca fuliginea; experiment: In vivo preventive test on Sphaerotheca fuliginea (cucumber); conditions: 500 ppm of active ingredient, evaluated 7 days after inoculation
Experimental: In Vivo Preventive Test on Sphaerotheca Fulicinea (Cucumber) • Solvent: 49 parts by weight of N,N-dimethylformamide • Emulsifier: 1 part by weight of alkylarylpolyglycolether To produce a suitable preparation of active compound, 1 part by weight of active compound is mixed with the stated amounts of solvent and emulsifier, and the concentrate is diluted with water to the desired concentration. To test for preventive activity, young plants are sprayed with the preparation of active compound at the stated rate of application. One day after this treatment, the plants are inoculated with an aqueous spore suspension of Sphaerotheca fuliginea. Then the plants are placed in a greenhouse at approximately 23° C. and a relative atmospheric humidity of approximately 70%. The test is evaluated 7 days after the inoculation. 0% means an efficacy which corresponds to that of the untreated control, while an efficacy of 100% means that no disease is observed.

[5] = system: Leptosphaeria nodorum; experiment: In vivo preventive test on Leptosphaeria nodorum (wheat); conditions: 500 ppm of active ingredient, evaluated 8 days after inoculation
Experimental: In Vivo Preventive Test on Leptosphaeria nodorum (Wheat) • Solvent: 49 parts by weight of N,N-dimethylacetamide • Emulsifier: 1 part by weight of alkylaryl polyglycol ether To produce a suitable preparation of active compound, 1 part by weight of active compound or active compound combination is mixed with the stated amounts of solvent and emulsifier, and the concentrate is diluted with water to the desired concentration. To test for preventive activity, young plants are sprayed with the preparation of active compound or active compound combination at the stated rate of application. After the spray coating has been dried, the plants are sprayed with a spore suspension of Leptosphaeria nodorum. The plants remain for 48 hours in an incubation cabinet at approximately 20° C. and a relative atmospheric humidity of approximately 100%. The plants are placed in the greenhouse at a temperature of approximately 22° C. and a relative atmospheric humidity of approximately 80%. The test is evaluated 8 days after the inoculation. 0% means an efficacy which corresponds to that of the untreated control, while an efficacy of 100% means that no disease is observed.

logP [1]	SMILES	Efficacy [2]	Efficacy ([3]; 500 ppm of active ingredient)	Efficacy [4]	Efficacy ([3]; 100 ppm of active ingredient)	Efficacy [5]
2.63	Cn1nc(C(F)F)c(C(=O)N2CCCCC2C(F)(F)F)c1F (stereo not drawn) [Example 19]	94%				
1.88	COCCCC1CCCCN1C(=O)c1cn(C)nc1C(F)F (stereo not drawn) [Example 45]					
2.18	COCCCC1CCCCN1C(=O)c1c(C(F)F)nn(C)c1F (stereo not drawn) [Example 47]	100%	89%			
4.39	CCCCCCC1CCCCN1C(=O)c1c(C(F)F)nn(C)c1Cl (stereo not drawn) [Example 21]	100%	100%			
3.19	CCCCOCCC1CCCCN1C(=O)c1c(C(F)F)nn(C)c1F (stereo not drawn) [Example 32]	100%	94%			
4.67	Cn1nc(C(F)F)c(C(=O)N2CCCC2C23CC4CC(CC(C4)C2)C3)c1Cl (stereo not drawn) [Example 13]	100%	94%			
2.32	Cn1cc(C(=O)N2CCCCC2CCOCC2CC2)c(C(F)F)n1 (stereo not drawn) [Example 33]	94%				
2.80	Cn1nc(C(F)F)c(C(=O)N2CCCCC2C(F)(F)F)c1Cl (stereo not drawn) [Example 18]	89%				
2.39	COCCCOCCC1CCCCN1C(=O)c1c(C(F)F)nn(C)c1Cl (stereo not drawn) [Example 39]					
2.25	COCCCOCCC1CCCCN1C(=O)c1c(C(F)F)nn(C)c1F (stereo not drawn) [Example 40]	95%	94%			
2.92	Cn1cc(C(=O)N2CCCCC2CCOCC2CCC2)c(C(F)F)n1 (stereo not drawn) [Example 38]	89%				
3.51	Cn1nc(C(F)F)c(C(=O)N2CCCCC2CCOCC2CCC2)c1Cl (stereo not drawn) [Example 36]	78%	88%			
3.15	Cn1cc(C(=O)N2CCCCC2C2CCCCC2)c(C(F)F)n1 (stereo not drawn) [Example 25]	100%	90%	100%	90%	
3.96	Cn1nc(C(F)F)c(C(=S)N2CCCC2CC2CCCCC2)c1F (stereo not drawn) [Example 51]					
3.94	CCCCCCC1CCCN1C(=O)c1c(C(F)F)nn(C)c1Cl (stereo not drawn) [Example 7]	100%	94%			
3.99	Cn1nc(C(F)F)c(C(=O)N2CCCC2CC2CC3CCC2C3)c1Cl (stereo not drawn) [Example 50]	100%	88%			
4.44	Cn1nc(C(F)F)c(C(=O)N2CCCC2C23CC4CC(CC(C4)C2)C3)c1F (stereo not drawn) [Example 14]	100%	94%	70%		
3.48	Cn1nc(C(F)F)c(C(=O)N2CCCC2C2CCCCC2)c1Cl (stereo not drawn) [Example 10]	100%	94%	90%		
4.19	Cn1nc(C(F)F)c(C(=O)N2CCCCC2CC2CCCCC2)c1F (stereo not drawn) [Example 26]	100%	100%	100%		
3.37	CCCCCCC1CCCN1C(=O)c1cn(C)nc1C(F)F (stereo not drawn) [Example 6]	95%	94%			
2.80	CCCCOCCC1CCCCN1C(=O)c1cn(C)nc1C(F)F (stereo not drawn) [Example 30]	95%	89%			
3.89	Cn1cc(C(=O)N2CCCC2C23CC4CC(CC(C4)C2)C3)c(C(F)F)n1 (stereo not drawn) [Example 12]	100%	94%		89%	

logP [1]	SMILES	Efficacy [2]	Efficacy ([3]; 500 ppm of active ingredient)	Efficacy [4]	Efficacy ([3]; 100 ppm of active ingredient)	Efficacy [5]
2.39	Cn1nc(C(F)F)c(C(=O)N2CCCC2C(F)(F)F)c1Cl (stereo not drawn) [Example 1]	100%				
4.18	CCCCCCC1CCCCN1C(=O)c1c(C(F)F)nn(C)c1F (stereo not drawn) [Example 22]	100%	100%			
3.71	CCCCCCC1CCCCN1C(=O)c1cn(C)nc1C(F)F (stereo not drawn) [Example 20]	100%	100%		94%	
3.35	CCCCOCCC1CCCCN1C(=O)c1c(C(F)F)nn(C)c1Cl (stereo not drawn) [Example 31]	90%	89%			
1.96	COCCCOCCC1CCCCN1C(=O)c1cn(C)nc1C(F)F (stereo not drawn) [Example 41]	70%				
2.33	COCCCC1CCCCN1C(=O)c1c(C(F)F)nn(C)c1Cl (stereo not drawn) [Example 46]					
3.89	Cn1nc(C(F)F)c(C(=O)N2CCCC2CC2CCCCC2)c1Cl (stereo not drawn) [Example 16]	100%	94%			70%
4.67	Cn1nc(C(F)F)c(C(=O)N2CCCCC2CCOCCC2CCCCC2)c1F (stereo not drawn) [Example 44]	100%	89%			
2.88	Cn1cc(C(=O)N2CCCC2C2CCCCC2)c(C(F)F)n1 (stereo not drawn) [Example 9]	100%	89%	95%		
2.73	CCCOCCC1CCCCN1C(=O)c1c(C(F)F)nn(C)c1F (stereo not drawn) [Example 29]	100%	94%			
2.39	CCCOCCC1CCCCN1C(=O)c1cn(C)nc1C(F)F (stereo not drawn) [Example 27]					
4.23	Cn1cc(C(=O)N2CCCCC2CCOCCC2CCCCC2)c(C(F)F)n1 (stereo not drawn) [Example 42]	95%	78%			
3.33	Cn1nc(C(F)F)c(C(=O)N2CCCCC2CCOCC2CCC2)c1F (stereo not drawn) [Example 37]	94%	94%			
2.25	Cn1nc(C(F)F)c(C(=O)N2CCCC2C(F)(F)F)c1F (stereo not drawn) [Example 2]	100%				
2.66	Cn1nc(C(F)F)c(C(=O)N2CCCCC2CCOCC2CC2)c1F (stereo not drawn) [Example 35]	94%	94%			
2.82	Cn1nc(C(F)F)c(C(=O)N2CCCCC2CCOCC2CC2)c1Cl (stereo not drawn) [Example 34]	94%				
4.51	Cn1nc(C(F)F)c(C(=S)N2CCCC2C23CC4CC(CC(C4)C2)C3)c1F (stereo not drawn) [Example 52]					
4.87	Cn1nc(C(F)F)c(C(=O)N2CCCCC2CCOCCC2CCCCC2)c1Cl (stereo not drawn) [Example 43]	90%				
3.60	Cn1nc(C(F)F)c(C(=O)N2CCCCC2C2CCCCC2)c1F (stereo not drawn) [Example 24]	100%	94%	95%		
3.85	Cn1nc(C(F)F)c(C(=O)N2CCCCC2C2CCCCC2)c1Cl (stereo not drawn) [Example 23]	100%	88%			
2.90	CCCOCCC1CCCCN1C(=O)c1c(C(F)F)nn(C)c1Cl (stereo not drawn) [Example 28]					
3.33	Cn1cc(C(=O)N2CCCC2CC2CCCCC2)c(C(F)F)n1 (stereo not drawn) [Example 15]	100%	89%	85%		
